{"source": "patent US20220257727A1", "about": "“PHARMACEUTICAL COMPOSITION CONTAINING LYSOZYME AND USE THEREOF” (GUANGZHOU CENTURY CLINICAL RESEARCH., LTD., priority 2019, published 2022)", "key": {"[1]": {"system": "psoriasis", "conditions": "human, in vivo", "text": "(§1) Psoriasis can be divided into mild, moderate, and severe according to the severity. The severity can be determined by PASI (Psoriasis Area Severity Index) scores. PASI is a set of scoring indicators that are widely used internationally to reflect the severity of psoriasis. In the scoring system, four parts, i.e., the head, upper limbs, torso, and lower limbs, are used for comprehensive scoring according to indicators such as erythema, desquamation, infiltration, and area of involvement. The higher the score, the more severe the condition of psoriasis. The specific scoring rules are well known in the field of medical diagnosis.\n(§2) Ineffective: The PASI score of psoriasis after treatment is more than 50% of the score before treatment, namely, PASI after treatment÷PASI before treatment×100%>50%."}, "[2]": {"system": "psoriasis", "assay": "Case studies of patients with drug-resistant psoriasis (PASI score, skin state, recurrence, tolerability)", "text": "as §1, §2"}, "[3]": {"conditions": "Example 7, after secukinumab treatment"}, "[4]": {"conditions": "Example 6, person, tretinoin cream, calcipotriol ointment, methotrexate tablets and other treatments in the past"}, "[5]": {"conditions": "Example 6, after tretinoin cream, calcipotriol ointment, methotrexate tablets and other treatments, severe psoriasis"}, "[6]": {"conditions": "Example 4, person, tretinoin cream, calcipotriol ointment and other treatments"}, "[7]": {"conditions": "Example 4, after tretinoin cream, calcipotriol ointment and other treatments"}}}
{"compound": "secukinumab: IL-17 inhibitor", "values": [{"measurement": "tolerability", "setting": "[1]", "value": "intolerance occurred"}, {"measurement": "PASI decrease", "setting": "[2]; [3]", "value": 10, "unit": "%"}, {"measurement": "PASI score", "setting": "[2]; [3]", "value": 8.7}]}
{"compound": "CN(Cc1cnc2nc(N)nc(N)c2n1)c1ccc(C(=O)N[C@@H](CCC(=O)O)C(=O)O)cc1", "note": "[methotrexate tablets, methotrexate]", "values": [{"measurement": "relapse", "setting": "[2]; Example 3, after relief, within two years follow-up", "value": "relapsed twice"}, {"measurement": "effect of treatment", "setting": "[2]; Example 3, taken after lysozyme buccal tablets withdrawal, self-reported", "value": "the psoriasis was relieved"}, {"measurement": "PASI score", "setting": "[2]; Example 4, after oral methotrexate treatment", "value": 9.3}, {"measurement": "effect of treatment", "setting": "[2]; Example 4, oral treatment after relapse", "value": "the condition was not alleviated"}, {"measurement": "effect of treatment", "setting": "[2]; [4]", "value": "not alleviated"}, {"measurement": "PASI score", "setting": "[2]; [5]", "value": 13.8}]}
{"compound": "Adalimumab", "values": [{"measurement": "PASI decrease", "setting": "[2]; Example 6, after one course of treatment, PASI before 13.8", "value": 32, "unit": "%"}]}
{"compound": "CCOC(=O)c1ccc(C#Cc2ccc3c(c2)C(C)(C)CCS3)nc1", "note": "[tazarotene cream, tazarotene]", "values": [{"measurement": "effect of treatment", "setting": "[2]; Example 5, person, two months of treatment", "value": "ineffective"}]}
{"compound": "CC1=C(/C=C/C(C)=C/C=C/C(C)=C/C(=O)O)C(C)(C)CCC1", "note": "[tretinoin cream, tretinoin]", "values": [{"measurement": "effect of treatment", "setting": "[2]; [6]", "value": "healed"}, {"measurement": "relapse", "setting": "[2]; [7]", "value": "relapsed three months after the drug withdrawal"}, {"measurement": "effect of treatment", "setting": "[2]; [4]", "value": "not alleviated"}, {"measurement": "PASI score", "setting": "[2]; [5]", "value": 13.8}]}
{"compound": "C=C1/C(=C\\C=C2/CCC[C@]3(C)[C@@H]([C@H](C)/C=C/[C@@H](O)C4CC4)CC[C@@H]23)C[C@@H](O)C[C@@H]1O", "note": "[calcipotriol ointment, calcipotriol]", "values": [{"measurement": "skin irritation", "setting": "[1]", "value": "severe"}, {"measurement": "PASI score", "setting": "[2]; Example 3, person, after 1 month of use", "value": 5.3}, {"measurement": "PASI improvement vs before treatment", "setting": "[2]; Example 3, after 1 month of use", "value": 10, "unit": "%"}, {"measurement": "effect of treatment", "setting": "[2]; [6]", "value": "healed"}, {"measurement": "relapse", "setting": "[2]; [7]", "value": "relapsed three months after the drug withdrawal"}, {"measurement": "effect of treatment", "setting": "[2]; [4]", "value": "not alleviated"}, {"measurement": "PASI score", "setting": "[2]; [5]", "value": 13.8}]}
